Test results: ChEMBL document CHEMBL3046832, “Synthesis of some sulfonamides, disubstituted sulfonylureas or thioureas and some structurally related variants. A class of promising antitumor agents” (2007)

How the values were obtained:
Type in all cases: functional
MDA-MB-435 = assay: Cytotoxicity against Homo sapiens (human) MDA-MB-435 cells after 48 hr by SRB assay; conditions: MDA-MB-435, 48 h
M14 = assay: Cytotoxicity against Homo sapiens (human) M14 cells after 48 hr by SRB assay; conditions: M14, 48 h
LOX IMVI = assay: Cytotoxicity against Homo sapiens (human) LOXIMVI cells after 48 hr by SRB assay
U-251 = assay: Cytotoxicity against Homo sapiens (human) U251 cells after 48 hr by SRB assay; conditions: U-251, 48 h
SNB-75 = assay: Cytotoxicity against Homo sapiens (human) SNB75 cells after 48 hr by SRB assay; conditions: SNB-75, 48 h
Hs-578T = assay: Cytotoxicity against Homo sapiens (human) Hs578T cells after 48 hr by SRB assay
MCF7 [1] = assay: Cytotoxicity against Homo sapiens (human) MCF7 cells after 48 hr by SRB assay; conditions: MCF7, 48 h
MDA-MB-231 = assay: Cytotoxicity against Homo sapiens (human) MDA-MB-231 cells after 48 hr by SRB assay; conditions: MDA-MB-231, 48 h
DU-145 = assay: Cytotoxicity against Homo sapiens (human) DU145 cells after 48 hr by SRB assay; conditions: DU-145, 48 h
UO-31 = assay: Cytotoxicity against Homo sapiens (human) UO31 cells after 48 hr by SRB assay; conditions: UO-31, 48 h
CAKI-1 = assay: Cytotoxicity against Homo sapiens (human) Caki1 cells after 48 hr by SRB assay; conditions: CAKI-1, 48 h
ACHN = assay: Cytotoxicity against Homo sapiens (human) ACHN cells after 48 hr by SRB assay
786-0 = assay: Cytotoxicity against Homo sapiens (human) 786-0 cells after 48 hr by SRB assay; conditions: 786-0, 48 h
OVCAR-8 = assay: Cytotoxicity against Homo sapiens (human) OVCAR8 cells after 48 hr by SRB assay; conditions: OVCAR-8, 48 h
OVCAR-5 = assay: Cytotoxicity against Homo sapiens (human) OVCAR5 cells after 48 hr by SRB assay; conditions: OVCAR-5, 48 h
OVCAR-4 = assay: Cytotoxicity against Homo sapiens (human) OVCAR4 cells after 48 hr by SRB assay; conditions: OVCAR-4, 48 h
IGROV-1 = assay: Cytotoxicity against Homo sapiens (human) IGROV1 cells after 48 hr by SRB assay; conditions: IGROV-1, 48 h
OVCAR-3 = assay: Cytotoxicity against Homo sapiens (human) OVCAR3 cells after 48 hr by SRB assay; conditions: OVCAR-3, 48 h
UACC-62 = assay: Cytotoxicity against Homo sapiens (human) UACC62 cells after 48 hr by SRB assay; conditions: UACC-62, 48 h
UACC-257 = assay: Cytotoxicity against Homo sapiens (human) UACC257 cells after 48 hr by SRB assay; conditions: UACC-257, 48 h
SK-MEL-5 = assay: Cytotoxicity against Homo sapiens (human) SK-MEL-5 cells after 48 hr by SRB assay; conditions: SK-MEL-5, 48 h
[2] = Cytotoxicity against Homo sapiens (human) breast cancer cells after 48 hr by SRB assay; conditions: Cancer cell lines
[3] = Cytotoxicity against Homo sapiens (human) prostate cancer cells after 48 hr by SRB assay; conditions: Cancer cell lines
[4] = Cytotoxicity against Homo sapiens (human) renal cancer cells after 48 hr by SRB assay; conditions: Cancer cell lines
[5] = Cytotoxicity against Homo sapiens (human) melanoma cells after 48 hr by SRB assay; conditions: Melanoma cell
[6] = Cytotoxicity against Homo sapiens (human) CNS cancer cells after 48 hr by SRB assay; conditions: Cancer cell lines
[7] = Cytotoxicity against Homo sapiens (human) colon cancer cells after 48 hr by SRB assay; conditions: Cancer cell lines
[8] = Cytotoxicity against Homo sapiens (human) non-small cell lung cancer cells after 48 hr by SRB assay; conditions: Cancer cell lines
NCI-H460 = assay: Cytotoxicity against Homo sapiens (human) NCI-H460 cells assessed as cellular growth after 48 hr by Alamar blue assay; set-up: concentration or dose not given beside the values
[9] = Cytotoxicity against Homo sapiens (human) leukemia cells after 48 hr by SRB assay; conditions: Leukemia cell
T47D = assay: Cytotoxicity against Homo sapiens (human) T47D cells after 48 hr by SRB assay
SF-539 = assay: Cytotoxicity against Homo sapiens (human) SF539 cells after 48 hr by SRB assay; conditions: SF-539, 48 h
SF-295 = assay: Cytotoxicity against Homo sapiens (human) SF295 cells after 48 hr by SRB assay; conditions: SF-295, 48 h
SF-268 = assay: Cytotoxicity against Homo sapiens (human) SF268 cells after 48 hr by SRB assay; conditions: SF-268, 48 h
HCT-15 = assay: Cytotoxicity against Homo sapiens (human) HCT15 cells after 48 hr by SRB assay; conditions: HCT-15, 48 h
HT-29 = assay: Cytotoxicity against Homo sapiens (human) HT-29 cells after 48 hr by SRB assay; conditions: HT-29, 48 h
HCC 2998 = assay: Cytotoxicity against Homo sapiens (human) HCC2998 cells after 48 hr by SRB assay; conditions: HCC 2998, 48 h
NCI-H522 = assay: Cytotoxicity against Homo sapiens (human) NCI-H522 cells after 48 hr by SRB assay; conditions: NCI-H522, 48 h
COLO 205 = assay: Cytotoxicity against Homo sapiens (human) COLO205 cells after 48 hr by SRB assay; conditions: COLO 205, 48 h
NCI-H23 = assay: Cytotoxicity against Homo sapiens (human) NCI-H23 cells after 48 hr by SRB assay; conditions: NCI-H23, 48 h
[10] = Cytotoxicity against Homo sapiens (human) NCI-H322 cells after 48 hr by SRB assay; conditions: NCI-H322, 48 h
EKVX = assay: Cytotoxicity against Homo sapiens (human) EKVX cells after 48 hr by SRB assay
HOP-62 = assay: Cytotoxicity against Homo sapiens (human) HOP62 cells after 48 hr by SRB assay; conditions: HOP-62, 48 h
A549 = assay: Cytotoxicity against Homo sapiens (human) A549 cells after 48 hr by SRB assay; conditions: A549, 48 h
MOLT-4 = assay: Cytotoxicity against Homo sapiens (human) MOLT4 cells after 48 hr by SRB assay; conditions: MOLT-4, 48 h
CCRF-CEM = assay: Cytotoxicity against Homo sapiens (human) CCRF-CEM cells after 48 hr by SRB assay
MCF7 [11] = assay: Cytotoxicity against Homo sapiens (human) MCF7 cells assessed as cellular growth after 48 hr by Alamar blue assay; set-up: concentration or dose not given beside the values

Structure (SMILES): O=C(NC1CCCCC1)NS(=O)(=O)c1ccc(-n2nc3c(c2-c2cccs2)Cc2ccccc2-3)cc1
- GI50 (MDA-MB-435): 32.5 µM
- GI50 (M14): 64.1 µM
- GI50 (LOX IMVI): 5.66 µM
- GI50 (U-251): 25.6 µM
- GI50 (SNB-75): 52.2 µM
- GI50 (Hs-578T): 37.5 µM
- GI50 (MCF7 [1]): > 100 µM
- GI50 (MDA-MB-231): 27.9 µM
- GI50 (DU-145): 31.9 µM
- GI50 (UO-31): 15.4 µM
- GI50 (CAKI-1): 16 µM
- GI50 (ACHN): 17.3 µM
- GI50 (786-0): 32.3 µM
- GI50 (OVCAR-8): 25.3 µM
- GI50 (OVCAR-5): 26.6 µM
- GI50 (OVCAR-4): 27 µM
- GI50 (IGROV-1): 4.12 µM
- GI50 (OVCAR-3): 24.5 µM
- GI50 (UACC-62): 19.3 µM
- GI50 (UACC-257): 24.8 µM
- GI50 (SK-MEL-5): 18.7 µM
- GI50 [2]: 41.7 µM
- TGI [2]: 94.2 µM
- GI50 [3]: 23.2 µM
- TGI [3]: 34.7 µM
- GI50 [4]: 21.3 µM
- TGI [4]: 40.1 µM
- GI50 [5]: 27.2 µM
- TGI [5]: 53.4 µM
- GI50 [6]: 49.5 µM
- TGI [6]: 93.6 µM
- GI50 [7]: 24.2 µM
- TGI [7]: 73.3 µM
- GI50 [8]: 38.7 µM
- TGI [8]: 46.7 µM
- Activity (NCI-H460): <=32%
- GI50 [9]: 17.9 µM
- TGI [9]: 26.6 µM
- GI50 (T47D): 39.7 µM
- GI50 (SF-539): 27.6 µM
- GI50 (SF-295): 34.9 µM
- GI50 (SF-268): > 100 µM
- GI50 (HCT-15): 17.8 µM
- GI50 (HT-29): 34.3 µM
- GI50 (HCC 2998): 6.63 µM
- GI50 (NCI-H522): 12.3 µM
- GI50 (COLO 205): 23.3 µM
- GI50 (NCI-H23): 12.8 µM
- GI50 [10]: 37.9 µM
- GI50 (EKVX): 28.6 µM
- GI50 (HOP-62): > 100 µM
- GI50 (A549): 28 µM
- GI50 (MOLT-4): 49.9 µM
- GI50 (CCRF-CEM): 1.15 µM
- Activity (MCF7 [11]): <=32%

Structure (SMILES): O=C(Nc1ccccc1)NS(=O)(=O)c1ccc(-n2nc3c(c2-c2cccs2)Cc2ccccc2-3)cc1
- GI50 (MDA-MB-435): 22.1 µM
- GI50 (M14): 25 µM
- GI50 (LOX IMVI): 12 µM
- GI50 (U-251): 22.9 µM
- GI50 (SNB-75): 70.4 µM
- GI50 (Hs-578T): 16.8 µM
- GI50 (MCF7 [1]): 13.4 µM
- GI50 (MDA-MB-231): 15.3 µM
- GI50 (DU-145): 28.6 µM
- GI50 (UO-31): 32.2 µM
- GI50 (CAKI-1): 11.1 µM
- GI50 (ACHN): 17.6 µM
- GI50 (786-0): 17.6 µM
- GI50 (OVCAR-8): 28.3 µM
- GI50 (OVCAR-5): 20.1 µM
- GI50 (OVCAR-4): 34.9 µM
- GI50 (IGROV-1): 21.4 µM
- GI50 (OVCAR-3): 21.8 µM
- GI50 (UACC-62): 15.8 µM
- GI50 (UACC-257): 17.7 µM
- GI50 (SK-MEL-5): 15.6 µM
- GI50 [2]: 20.8 µM
- TGI [2]: 56.5 µM
- GI50 [3]: 19.5 µM
- TGI [3]: 98.1 µM
- GI50 [4]: 29.6 µM
- TGI [4]: 42.5 µM
- GI50 [5]: 29.5 µM
- TGI [5]: 43 µM
- GI50 [6]: 44.4 µM
- TGI [6]: 80.7 µM
- GI50 [7]: 20.4 µM
- TGI [7]: 37.2 µM
- GI50 [8]: 18.2 µM
- TGI [8]: 74.4 µM
- Activity (NCI-H460): <=32%
- GI50 [9]: 12.1 µM
- TGI [9]: 85.6 µM
- GI50 (T47D): 37.9 µM
- GI50 (SF-539): 25 µM
- GI50 (SF-295): 21.9 µM
- GI50 (SF-268): 26 µM
- GI50 (HCT-15): 16.9 µM
- GI50 (HT-29): 26.7 µM
- GI50 (HCC 2998): 15.3 µM
- GI50 (NCI-H522): 31.5 µM
- GI50 (COLO 205): 44 µM
- GI50 (NCI-H23): 12.2 µM
- GI50 [10]: 4.5 µM
- GI50 (EKVX): 26.1 µM
- GI50 (HOP-62): 18.1 µM
- GI50 (A549): 20.8 µM
- GI50 (MOLT-4): 15.5 µM
- GI50 (CCRF-CEM): 13.6 µM
- Activity (MCF7 [11]): <=32%
